Data: PubChem BioAssay AID248 (DTP/NCI, 2004)
Several values for one entry are separate records, joined by “and”; a condition that tells them apart may be missing. Equal entries are not always repeated. Inconclusive results and toxic doses are left out. Cut-off read from the data, not from the text of the source: active = T/C of 150% or more; inactive = T/C below 125%.

System: L1210 leukemia ip in BDF1 mice, survival T/C
Experiment: NCI In Vivo Anticancer Drug Screen. Data for tumor model L1210 Leukemia (intraperitoneal) in B6D2F1 (BDF1) mice
Settings: endpoint: mean survival time, higher = longer survival
Outline: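 Each compound was tested against a transplantable tumor grown in mice. The endpoint was survival, with treated animals benchmarked against vehicle controls as a simple ratio.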

[1] = dose: 12.5 mg/kg/injection, schedule: Q01DX009 (ip), vehicle: saline
[2] = dose: 25.0 mg/kg/injection, schedule: Q01DX009 (ip), vehicle: saline
[3] = dose: 50.0 mg/kg/injection, schedule: Q04DX002 (ip), vehicle: Klucel (hydroxypropylcellulose) (HPC)
[4] = dose: 100.0 mg/kg/injection, schedule: Q04DX002 (ip), vehicle: Klucel (hydroxypropylcellulose) (HPC)
[5] = dose: 200.0 mg/kg/injection, schedule: Q04DX002 (ip), vehicle: Klucel (hydroxypropylcellulose) (HPC)
[6] = dose: 400.0 mg/kg/injection, schedule: Q04DX002 (ip), vehicle: Klucel (hydroxypropylcellulose) (HPC)
[7] = dose: 200.0 mg/kg/injection, schedule: Q01DX001 (ip), vehicle: saline
[8] = dose: 400.0 mg/kg/injection, schedule: Q01DX001 (ip), vehicle: saline
[9] = dose: 50.0 mg/kg/injection, schedule: Q01DX009 (ip), vehicle: Klucel (hydroxypropylcellulose) (HPC)
[10] = dose: 100.0 mg/kg/injection, schedule: Q01DX009 (ip), vehicle: Klucel (hydroxypropylcellulose) (HPC)
[11] = dose: 200.0 mg/kg/injection, schedule: Q01DX009 (ip), vehicle: Klucel (hydroxypropylcellulose) (HPC)
[12] = dose: 100.0 mg/kg/injection, schedule: Q01DX009 (ip), vehicle: saline with Tween-80
[13] = dose: 100.0 mg/kg/injection, schedule: Q04DX003 (ip), vehicle: saline with Tween-80
[14] = dose: 200.0 mg/kg/injection, schedule: Q01DX009 (ip), vehicle: saline with Tween-80
[15] = dose: 200.0 mg/kg/injection, schedule: Q04DX003 (ip), vehicle: saline with Tween-80
[16] = dose: 400.0 mg/kg/injection, schedule: Q01DX009 (ip), vehicle: saline with Tween-80
[17] = dose: 400.0 mg/kg/injection, schedule: Q04DX003 (ip), vehicle: saline with Tween-80
[18] = dose: 100.0 mg/kg/injection, schedule: Q04DX003 (ip), vehicle: saline
[19] = dose: 200.0 mg/kg/injection, schedule: Q04DX003 (ip), vehicle: saline
[20] = dose: 100.0 mg/kg/injection, schedule: Q01DX001 (ip), vehicle: carboxymethylcellulose (CMC)
[21] = dose: 200.0 mg/kg/injection, schedule: Q01DX001 (ip), vehicle: carboxymethylcellulose (CMC)
[22] = dose: 400.0 mg/kg/injection, schedule: Q01DX001 (ip), vehicle: carboxymethylcellulose (CMC)
[23] = dose: 100.0 mg/kg/injection, schedule: Q04DX003 (ip), vehicle: Klucel (hydroxypropylcellulose) (HPC)
[24] = dose: 200.0 mg/kg/injection, schedule: Q04DX003 (ip), vehicle: Klucel (hydroxypropylcellulose) (HPC)
[25] = dose: 100.0 mg/kg/injection, schedule: Q01DX009 (ip), vehicle: other
[26] = dose: 200.0 mg/kg/injection, schedule: Q01DX009 (ip), vehicle: other

Measured: T/C

CN(C)/C=N\c1ncnc2c1c(C#N)cn2C1OC(CO)C(O)C1O (stereo not drawn)
inactive: dose: 6.25 mg/kg/injection, schedule: Q01DX009 (ip), vehicle: saline 92 % of control | dose: 12.5 mg/kg/injection, schedule: Q01DX005 (ip), vehicle: saline 109 % of control | [1] 115 % of control | dose: 25.0 mg/kg/injection, schedule: Q01DX005 (ip), vehicle: saline 101 % of control | [2] 117 % of control

NC(=O)OCc1ccccc1
inactive: [3] 98 % of control | [4] 98 % of control | [5] 94 % of control | [6] 94 % of control

Cc1ccc2c3c1C(O)C(C(N)=O)C3CCS2 (stereo not drawn)
inactive: [7] 89 % of control | [8] 106 % of control

Cc1ccc(N2CCN(CC(O)c3ccccc3)CC2)cc1 (stereo not drawn)
inactive: [9] 95 % of control | [10] 95 % of control | [11] 98 % of control

CNC(=O)NC(C)(C)CCCCC(C)(C)NC(=O)NC
inactive: dose: 50.0 mg/kg/injection, schedule: Q01DX001 (ip), vehicle: saline 104 % of control | dose: 100.0 mg/kg/injection, schedule: Q01DX001 (ip), vehicle: saline 102 % of control | [7] 93 % of control | [8] 96 % of control

O=C(O)C1CCC[N-]C1.O=C(O)C1CCC[N-]C1.[Cl][Pt+2][Cl] (stereo not drawn)
inactive: dose: 5.0 mg/kg/injection, schedule: Q01DX009 (ip), vehicle: saline with Tween-80 95 % of control | dose: 10.0 mg/kg/injection, schedule: Q01DX009 (ip), vehicle: saline with Tween-80 103 % of control | dose: 20.0 mg/kg/injection, schedule: Q01DX009 (ip), vehicle: saline with Tween-80 106 % of control

NS(=O)Oc1ccc(Nc2ncnc3nc[nH]c23)cc1 (stereo not drawn)
inactive: [12] 97 % of control | [13] 98 % of control | [14] 95 % of control | [15] 102 % of control | [16] 104 % of control | [17] 98 % of control

C=C(Br)CNC(C)=O
inactive: [1] 113 % of control | [2] 106 % of control | dose: 50.0 mg/kg/injection, schedule: Q01DX009 (ip), vehicle: saline 98 % of control | dose: 100.0 mg/kg/injection, schedule: Q01DX009 (ip), vehicle: saline 120 % of control | [18] 113 % of control | [19] 113 % of control

CN(C)c1ccc(/C=N/NC(=O)CNC(=O)Nc2nccs2)c(Cl)c1
inactive: dose: 50.0 mg/kg/injection, schedule: Q01DX009 (ip), vehicle: saline with Tween-80 100 % of control | [12] 89 % of control | [14] 89 % of control

CCCCC(=O)N(CC)CC
inactive: dose: 100.0 mg/kg/injection, schedule: Q01DX001 (ip), vehicle: acetone 97 % of control | dose: 200.0 mg/kg/injection, schedule: Q01DX001 (ip), vehicle: acetone 97 % of control

CC(=O)NC(C)(CCOCc1ccccc1)C(=O)O (stereo not drawn)
inactive: dose: 50.0 mg/kg/injection, schedule: Q01DX001 (ip), vehicle: carboxymethylcellulose (CMC) 94 % of control | [20] 100 % of control | [21] 110 % of control | [22] 96 % of control

Cc1c(Br)sc2ccccc12
inactive: [20] 96 % of control | [21] 96 % of control | [22] 107 % of control

C=CCN(CC=C)S(=O)(=O)c1cccc(C(=O)O)c1
inactive: [23] 103 % of control | [24] 92 % of control | dose: 400.0 mg/kg/injection, schedule: Q04DX003 (ip), vehicle: Klucel (hydroxypropylcellulose) (HPC) 105 % of control

NC(=S)N/N=C\C(c1ccccc1)c1ccccc1
inactive: [12] 98 % of control | [13] 96 % of control | [14] 94 % of control | [15] 95 % of control | [16] 96 % of control | [17] 104 % of control

N#Cc1c(F)c(F)c(Oc2c(F)c(F)c(F)c(Oc3c(F)c(F)c(C#N)c(F)c3F)c2F)c(F)c1F
inactive: [25] 103 % of control | dose: 100.0 mg/kg/injection, schedule: Q04DX003 (ip), vehicle: other 100 % of control | [26] 100 % of control | dose: 200.0 mg/kg/injection, schedule: Q04DX003 (ip), vehicle: other 97 % of control and 100 % of control | dose: 400.0 mg/kg/injection, schedule: Q04DX003 (ip), vehicle: other 86 % of control

NNC(=O)c1nc(N)n[nH]1
inactive: [12] 98 % of control | [14] 95 % of control | [16] 109 % of control

CN1CC2=C(C1)C(N(C(=O)c1ccc(-c3ccccc3)cc1)C(=O)c1ccc(-c3ccccc3)cc1)=NCN2
inactive: [10] 97 % of control | [11] 94 % of control | dose: 400.0 mg/kg/injection, schedule: Q01DX009 (ip), vehicle: Klucel (hydroxypropylcellulose) (HPC) 94 % of control

c1ccc(SCc2ncc3cnccn23)cc1
inactive: [13] 97 % of control | [15] 94 % of control | [17] 103 % of control

CCOC(=O)CNc1cc(C)ccc1C
inactive: [4] 95 % of control | [5] 98 % of control | [6] 95 % of control

COc1ccc(C(=O)CC(C#N)c2ccc3c(c2)OCO3)cc1OC (stereo not drawn)
inactive: [12] 94 % of control | [14] 94 % of control | [16] 96 % of control

CC1(C)CN(N=O)C(C)(C)CN1N=O
inactive: dose: 100.0 mg/kg/injection, schedule: Q04DX003 (ip), vehicle: acetone 99 % of control | dose: 200.0 mg/kg/injection, schedule: Q04DX003 (ip), vehicle: acetone 103 % of control | dose: 400.0 mg/kg/injection, schedule: Q04DX003 (ip), vehicle: acetone 96 % of control

O=C(O)/C=C\c1ccccc1
inactive: [25] 100 % of control | [26] 95 % of control

O=C(N/C=C/NC(=O)c1ccccc1)c1ccccc1
inactive: dose: 100.0 mg/kg/injection, schedule: Q01DX001 (ip), vehicle: Klucel (hydroxypropylcellulose) (HPC) 104 % of control | dose: 200.0 mg/kg/injection, schedule: Q01DX001 (ip), vehicle: Klucel (hydroxypropylcellulose) (HPC) 111 % of control | dose: 400.0 mg/kg/injection, schedule: Q01DX001 (ip), vehicle: Klucel (hydroxypropylcellulose) (HPC) 104 % of control

CCN(CC)C(=O)Cn1cc(F)c(=O)[nH]c1=O
inactive: [13] 98 % of control | [18] 104 % of control | [15] 101 % of control | [19] 104 % of control | [17] 106 % of control | dose: 400.0 mg/kg/injection, schedule: Q04DX003 (ip), vehicle: saline 98 % of control

O=C(Nc1ccccc1)c1ccccc1C(O)(c1ccccc1)c1ccccn1 (stereo not drawn)
inactive: [12] 95 % of control | [14] 97 % of control | [16] 92 % of control

O=C(C1C(c2ccccc2)C1c1ccccc1)N(CCCl)Cc1ccccc1 (stereo not drawn)
inactive: dose: 25.0 mg/kg/injection, schedule: Q04DX002 (ip), vehicle: Klucel (hydroxypropylcellulose) (HPC) 97 % of control | [3] 87 % of control | [4] 100 % of control

COC(=O)C1=C(C(=O)OC)C2CCC1C2
inactive: [25] 103 % of control | [26] 103 % of control | dose: 400.0 mg/kg/injection, schedule: Q01DX009 (ip), vehicle: other 98 % of control

CCOC(=O)N/N=C/c1ccccc1OC
inactive: dose: 75.0 mg/kg/injection, schedule: Q01DX001 (ip), vehicle: saline 90 % of control | dose: 150.0 mg/kg/injection, schedule: Q01DX001 (ip), vehicle: saline 90 % of control | dose: 300.0 mg/kg/injection, schedule: Q01DX001 (ip), vehicle: saline 96 % of control

Clc1c(Cl)c(CBr)c(Cl)c(CBr)c1Cl
inactive: [9] 104 % of control | [23] 103 % of control | [24] 109 % of control
